{"source": "patent US5767088A", "about": "“Tachykinin antagonists” (Warner-Lambert Company, priority 1996, dated 1998)", "note": "pIC50, pKd: −log10 of the molar value."}
{"target": "T1, NK3 (Cavia porcellus, UniProt P30098)", "T1 sequence (P30098 1-440)": "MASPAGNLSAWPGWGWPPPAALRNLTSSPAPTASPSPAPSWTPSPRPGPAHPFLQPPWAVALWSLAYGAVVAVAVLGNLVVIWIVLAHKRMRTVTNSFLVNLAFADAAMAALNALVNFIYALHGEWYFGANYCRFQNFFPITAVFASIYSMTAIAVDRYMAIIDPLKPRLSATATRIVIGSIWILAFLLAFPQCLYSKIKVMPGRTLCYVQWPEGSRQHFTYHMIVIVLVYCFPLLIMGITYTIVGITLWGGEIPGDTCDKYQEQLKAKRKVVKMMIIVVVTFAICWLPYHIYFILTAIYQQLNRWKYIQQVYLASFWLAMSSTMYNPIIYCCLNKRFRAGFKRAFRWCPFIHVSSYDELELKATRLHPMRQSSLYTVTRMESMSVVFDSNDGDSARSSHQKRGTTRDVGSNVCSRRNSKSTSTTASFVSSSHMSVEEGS", "experiment": "guinea pig medial habenula assay (block of senktide-induced increases in firing rate, brain slice)", "format": "cell-based", "set-up": "guinea pig medial habenula neurones in a brain slice preparation in vitro; from tissue; host or cells: guinea pig medial habenula brain slice", "settings": "NK3 antagonist activity; mean equilibrium constant against senktide; brain slice in vitro; read-out: Guinea Pig Medial Habenula (Ke)"}
{"molecule": "CC(C)(C)OC(=O)N[C@@H](Cc1ccccc1)C(=O)N[C@](C)(Cc1ccccc1)C(=O)NCCCCCCCCC(N)=O", "note": "[Example 2, D-Phenylalaninamide, N-[(1,1-dimethylethoxy)carbonyl]-L-phenylalanyl-N-(9-amino-9-oxononyl)-α-methyl-]", "pKd": 7.60}
{"target": "T1, NK3", "experiment": "guinea pig ileum assay (Schild analysis of contractile responses)", "format": "cell-based", "set-up": "in vitro peripheral guinea pig ileum assay; from tissue; host or cells: guinea pig ileum (organ bath)", "settings": "NK3 antagonist activity; antagonist dissociation constant by Schild analysis", "units": {"Kb": "nM"}}
{"molecule": "CC(C)(C)OC(=O)N[C@@H](Cc1ccccc1)C(=O)N[C@](C)(Cc1ccccc1)C(=O)NCCCCCCCCC(N)=O", "note": "[Example 2, D-Phenylalaninamide, N-[(1,1-dimethylethoxy)carbonyl]-L-phenylalanyl-N-(9-amino-9-oxononyl)-α-methyl-]", "Kb": 10}
{"target": "T2, NK3 receptor (Homo sapiens, UniProt P29371)", "T2 construct": "host or cells: Chinese hamster ovary cells (membranes)", "T2 sequence (P29371 1-465)": "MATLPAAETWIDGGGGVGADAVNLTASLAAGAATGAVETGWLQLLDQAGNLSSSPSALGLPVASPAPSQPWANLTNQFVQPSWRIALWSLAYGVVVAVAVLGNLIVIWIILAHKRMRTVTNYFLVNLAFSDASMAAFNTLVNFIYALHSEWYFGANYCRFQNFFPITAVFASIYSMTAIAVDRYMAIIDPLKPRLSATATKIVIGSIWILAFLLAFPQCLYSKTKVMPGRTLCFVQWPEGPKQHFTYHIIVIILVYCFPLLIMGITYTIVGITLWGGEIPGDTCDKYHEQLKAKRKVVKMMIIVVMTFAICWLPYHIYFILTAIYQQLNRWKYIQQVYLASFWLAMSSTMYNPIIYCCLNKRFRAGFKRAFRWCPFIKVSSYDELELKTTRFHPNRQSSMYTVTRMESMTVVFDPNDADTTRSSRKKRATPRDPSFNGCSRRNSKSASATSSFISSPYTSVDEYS", "experiment": "NK3 receptor binding assay, [125I]-[MePhe7]neurokinin B, Chinese hamster ovary cell membranes", "settings": "competition with [125I]-[MePhe7]neurokinin B 40-100 pM, 90 minutes at 22° C., CHO cell membranes"}
{"molecule": "CC(C)(C)OC(=O)N[C@@H](Cc1ccccc1)C(=O)NC(C)(Cc1ccccc1)C(=O)NCCCc1ccc(O)cc1", "note": "(mixture of isomers) [Example 4, DL-Phenylalaninamide, N-[(1,1-dimethylethoxy)carbonyl]-L-phenylalanyl-N-[3-(4-hydroxyphenyl)propyl]-α-methyl-]", "pIC50": 7.06}
{"molecule": "CC(C)CCNC(=O)C(C)(Cc1ccccc1)NC(=O)[C@H](Cc1ccccc1)NC(=O)OC(C)(C)C", "note": "(mixture of isomers) [Example 5, DL-Phenylalaninamide, N-[(1,1-dimethylethoxy)carbonyl]-L-phenylalanyl-α-methyl-N-3-methylbutyl-]", "pIC50": 6.91}
{"molecule": "CC(C)(C)OC(=O)N[C@@H](Cc1ccccc1)C(=O)NC(C)(Cc1ccccc1)C(=O)NCCCCCc1ccccc1", "note": "(mixture of isomers) [Example 6, DL-Phenylalaninamide, N-[(1,1-dimethylethoxy)carbonyl]-L-phenylalanyl-α-methyl-N-(5-phenylpentyl)-]", "pIC50": 7.11}
{"molecule": "CC(C)(C)OC(=O)N[C@@H](Cc1ccccc1)C(=O)NC(C)(Cc1ccccc1)C(=O)NC1CCCC1", "note": "(mixture of isomers) [Example 7, DL-Phenylalaninamide, N-[(1,1-dimethylethoxy)carbonyl]-L-phenylalanyl-N-cyclopentyl-α-methyl-]", "pIC50": 6.25}
{"molecule": "CC(=O)NCCNC(=O)C(C)(Cc1ccccc1)NC(=O)[C@H](Cc1ccccc1)NC(=O)OC(C)(C)C", "note": "(mixture of isomers) [Example 10, DL-Phenylalaninamide, N-[(1,1-dimethylethoxy)carbonyl]-L-phenylalanyl-N-[2-(acetylamino)ethyl]-α-methyl-]", "pIC50": 6.74}
{"molecule": "CC(C)(C)OC(=O)N[C@@H](Cc1ccccc1)C(=O)NC(C)(Cc1ccccc1)C(=O)NCCC1CCCC1", "note": "(mixture of isomers) [Example 11, DL-Phenylalaninamide, N-[(1,1-dimethylethoxy)carbonyl]-L-phenylalanyl-N-(2-cyclopentylethyl)-α-methyl-]", "pIC50": 6.89}
{"molecule": "CC(C)(C)OC(=O)N[C@@H](Cc1ccccc1)C(=O)NC(C)(Cc1ccccc1)C(=O)NCCc1ccc(Cl)cc1", "note": "(mixture of isomers) [Example 12, DL-Phenylalaninamide, N-[(1,1-dimethylethoxy)carbonyl]-L-phenylalanyl-N-[2-(4-chlorophenyl)ethyl]-α-methyl-]", "pIC50": 6.85}
{"molecule": "CC(Cc1ccccc1)(NC(=O)[C@H](Cc1ccccc1)NC(=O)OCC1CCCCC1)C(N)=O", "note": "(mixture of isomers) [Example 16, DL-Phenylalaninamide, N-[(cyclohexylmethoxy)carbonyl]-L-phenylalanyl-α-methyl-]", "pIC50": 5.91}
{"molecule": "CC(C)COC(=O)N[C@@H](Cc1ccccc1)C(=O)NC(C)(Cc1ccccc1)C(N)=O", "note": "(mixture of isomers) [Example 17, DL-Phenylalaninamide, N-[(2-methylpropoxy)carbonyl]-L-phenylalanyl-α-methyl-]", "pIC50": 5.88}
{"molecule": "CC(Cc1ccccc1)(NC(=O)[C@H](Cc1ccccc1)NC(=O)OCc1ccc(Cl)c(Cl)c1)C(N)=O", "note": "(mixture of isomers) [Example 18, DL-Phenylalaninamide, N-[[(3,4-dichlorophenyl)-methoxy]carbonyl]-L-phenylalanyl-α-methyl-]", "pIC50": 5.82}
{"molecule": "CC(C)(C)OC(=O)N[C@@H](Cc1ccccc1)C(=O)NC(C)(Cc1cccc(Cl)c1)C(N)=O", "note": "(mixture of isomers) [Example 20, DL-Phenylalaninamide, N-[(1,1-dimethylethoxy)carbonyl]-L-phenylalanyl-3-chloro-α-methyl-]", "pIC50": 5.87}
{"molecule": "CC(C)(C)OC(=O)NC(Cc1cccc(Cl)c1)C(=O)N[C@](C)(Cc1ccccc1)C(N)=O", "note": "(mixture of isomers) [Example 21, D-Phenylalaninamide, 3-chloro-N-[(1,1-dimethylethoxy)-carbonyl]-DL-phenylalanyl-α-methyl-]", "pIC50": 6.04}
{"molecule": "CC(C)(C)OC(=O)N[C@@H](Cc1ccccc1)C(=O)NC(C)(Cc1ccccc1)C(=O)NCC1CCC(C(=O)O)CC1", "note": "(mixture of isomers) [Example 13, DL-Phenylalaninamide, N-[(1,1-dimethylethoxy)carbonyl]-L-phenylalanyl-N-[(4-carboxycyclohexyl)methyl]-α-methyl-, trans-]", "pIC50": 6.14}
{"molecule": "COc1ccc(CCCCNC(=O)[C@@](C)(Cc2ccccc2)NC(=O)[C@H](Cc2ccccc2)NC(=O)OC(C)(C)C)cc1", "note": "[Example 3]", "pIC50": 7.08}
{"molecule": "CC(C)(C)OC(=O)NC(CNC(Cc1ccccc1)C(N)=O)Cc1ccccc1", "note": "(stereo not drawn) [Example 22, Carbamic acid, [2-[[2-amino-2-oxo-1-(phenylmethyl)-ethyl]amino]-1-(phenylmethyl)ethyl]-, 1,1-dimethylethyl ester]", "pIC50": 5.36}
{"molecule": "DL-Phenylalaninamide, N-[[(octahydro-2-naphthalenyl)-oxy]carbonyl]-L-phenylalanyl-α-methyl [Example 19]", "pIC50": 5.51}
